Experiments:
Human keratinocytes = test: in vitro scratch assay (cell migration); format: cell-based; details: for increased keratinocyte migration observed with LLEC, under N-acetyl cysteine: 5 mM, pretreated 1 h before scratch assay
Description: The in vitro scratch assay is an easy, low-cost and well-developed method to measure cell migration in vitro. The basic steps involve creating a “scratch” in a cell monolayer, capturing images at the beginning and at regular intervals during cell migration to close the scratch, and comparing the images to quantify the migration rate of the cells. Compared to other methods, the in vitro scratch assay is particularly suitable for studies on the effects of cell-matrix and cell-cell interactions on cell migration, mimic cell migration during wound healing in vivo and are compatible with imaging of live cells during migration to monitor intracellular events if desired. In addition to monitoring migration of homogenous cell populations, this method has also been adopted to measure migration of individual cells in the leading edge of the scratch. Not taking into account the time for transfection of cells, in vitro scratch assay per se usually takes from several hours to overnight.
Human keratinocytes were plated under plated under placebo or a LLEC system (labeled “PROCELLERA®”). Cells were also plated under silver-only or zinc-only dressings. After 24 hours, the scratch assay was performed.
Measurement of the potential difference between adjacent zinc and silver dots when the LLEC is in contact with de-ionized water yielded a value of about 0.2 Volts. Though the potential difference between zinc and silver dots can be measured, non-intrusive measurement of the electric field arising from contact between the LLEC and liquid medium was difficult. Keratinocyte migration was accelerated by exposure to an Ag/Zn LLEC.
Scratch assay—A cell migration assay was performed using culture inserts (IBIDI®, Verona, Wis.) according to the manufacturers instructions. Cell migration was measured using time-lapse phase-contrast microscopy following withdrawal of the insert. Images were analyzed using the AxioVision Rel 4.8 software.
N-Acetyl Cysteine Treatment—Cells were pretreated with 5 mM of the thiol antioxidant N-acetylcysteine (Sigma) for 1 h before start of the scratch assay. […]

HUVEC cells [1] = test: EF-induced reorientation of endothelial cells (orientation index Oi); format: cell-based, human; details: for orientation response / reorientation of cells in an EF: drug 50 μM, 1 hour before and during EF exposure
Experimental: HUVEC cells were seeded in a trough formed by two parallel (1 cm apart) strips of glass coverslip (No. 1, length of 22 mm) fixed to the base of the dish with silicone grease. Scratch lines were made perpendicular to the long axis of the chamber with a fine sterile needle and used as reference marks for directed cell migration. Cells were incubated for 24-48 hours (37° C., 5% CO2) before a roof coverslip was applied and sealed with silicone grease. The final dimensions of the chamber, through which current was passed, were 22×10×0.2 mm. Agar-salt bridges not less than 15 cm long were used to connect silver/silver-chloride electrodes in beakers of Steinberg's solution (58 mM NaCl, 0.67 mM KCl, 0.44 mM Ca(NO3)2, 1.3 mM MgSO4, 4.6 mM Trizma base, pH 7.8-8.0), to pools of excess culture medium at either side of the chamber. Field strengths were measured directly at the beginning of, the end of and during each experiment. No fluctuations in field strength were observed. […] (50 μM), the Rho kinase inhibitor Y27632 (50 μM), both Akt and Rho kinase inhibitors (10 μM each) or latrunculin (50 nM) for 1 hour before EF stimulation. The same concentration of drug was present during EF exposure in a CO2 incubator.
A series of images was taken with an image analyser immediately before EF exposure and at 4, 8 and 24 hours of EF exposure. Cell orientation was quantified as an orientation index (Oi), which is defined as Oi=cos 2(α), where α is the angle formed by the long axis of a cell with a line drawn perpendicular to the field lines. A cell with its long axis parallel to the vector of the EF will have an Oi of −1, and a cell with its long axis exactly perpendicular to the EF vector will have an Oi of +1. […] The significance of this two-dimensional orientation distribution against randomness was calculated using Rayleigh's distribution. A long:short axis ratio was calculated for assessment of elongation.
Cell alignment was quantified using an orientation index Oi=cos 2(α), where α is the angle formed between the long axis of a cell and a line drawn perpendicular to the field lines. […]

HUVEC cells [2] = test: EF-induced elongation of endothelial cells (long:short axis ratio); format: cell-based, human; details: drug 50 μM
Experimental: HUVEC cells were seeded in a trough formed by two parallel (1 cm apart) strips of glass coverslip (No. 1, length of 22 mm) fixed to the base of the dish with silicone grease. Scratch lines were made perpendicular to the long axis of the chamber with a fine sterile needle and used as reference marks for directed cell migration. Cells were incubated for 24-48 hours (37° C., 5% CO2) before a roof coverslip was applied and sealed with silicone grease. The final dimensions of the chamber, through which current was passed, were 22×10×0.2 mm. […] Field strengths were measured directly at the beginning of, the end of and during each experiment. […]
A series of images was taken with an image analyser immediately before EF exposure and at 4, 8 and 24 hours of EF exposure. Cell orientation was quantified as an orientation index (Oi), which is defined as Oi=cos 2(α), where α is the angle formed by the long axis of a cell with a line drawn perpendicular to the field lines. […] The significance of this two-dimensional orientation distribution against randomness was calculated using Rayleigh's distribution. A long:short axis ratio was calculated for assessment of elongation.
HUVEC cells elongated dramatically in an EF. […] We quantified the elongation of the cells using a long:short axis ratio. […]

Molecule	orientation response / reorientation of cells in an EF (HUVEC cells [1])	long:short axis ratio in EF-treated cells (HUVEC cells [2])	other results
CC(=O)N[C@@H](CS)C(=O)O [N-Acetyl Cysteine, N-acetylcysteine]	–	–	increased keratinocyte migration observed with LLEC, under N-acetyl cysteine (Human keratinocytes): failed to reproduce the increased migration; increased keratinocyte migration observed with LLEC, under N-acetyl cysteine (Human keratinocytes; listed as N-acetyl cysteine): prevented
COc1cc([C@@H]2c3cc4c(cc3[C@H](O)[C@H]3COC(=O)[C@@H]23)OCO4)cc(OC)c1OC [IGF-1R inhibitor, picropodophyllin]	–	–	increased keratinocyte migration observed with LLEC, under IGF-1R inhibitor (Human keratinocytes; 50 nM picropodophyllin just prior to scratch assay): attenuated the increased keratinocyte migration
1-L-6-hydroxymethyl-chiro-inositol 2-[(R)-2-O-methyl-3-O-octadecylcarbonate] [Akt inhibitor]	significantly decreased	significantly decreased	–
C[C@@H](N)[C@H]1CC[C@H](C(=O)Nc2ccncc2)CC1 [Y27632]	–	significantly decreased	–
N#CC(=C(/N)Sc1ccccc1N)/C(C#N)=C(\N)Sc1ccccc1N [U0126]	–	–	Oi (HUVEC cells [1]): 0.33±0.03
COc1cc2ncnc(Nc3ccc(Cl)cc3F)c2cc1OC [VEGFR inhibitor, 4-[(4′-chloro-2′-fluoro)phenylamino]-6,7-dimethoxyquinazoline]	completely abolished	–	–

— patent publication US10307587B2, “Methods and devices for treating the skin” (VOMARIS INNOVATIONS, INC., priority 2014, dated 2019)
